Results reported in patent publication US20090304661A1, “Method And Composition For Proctecting Neuronal Tissue From Damage Induced By Elevated Glutamate Levels” (Yeda Research And Development Co. Ltd. at the Weizmann …, priority 2006, published 2009).
Blank lines part the entries; values can stand above or below the compound they belong to.

Key:
[1] = biological target: E. coli GOT (GenBank Accession No. D90731.1) (Escherichia coli, UniProt P00509); details: cited from earlier work
[2] = tested on: Glu in rat brain striatum; assay: Dual-probe microdialysis of Glu in rat brain striatum; type: in vivo
Procedure: Glu (1M) was continuously perfused at a rate of 2 μl/min from the delivery probe while perfusing artificial CSF at the same rate of 2 μl/min through the recovery probe for the entire duration of the experiments. […] Microdialysis of 1M Glu along with an intravenous Glu injection performed at t=100 min for 30 min (30 μmoles/min/100 g).
Artificial CSF was perfused at a rate of 2 μl/min through the two probes for a duration of 60 min. A 1 M solution of glutamate was then perfused through the delivery probe, at a rate of 2 μl/min for the entire duration of the experiment while perfusing artificial CSF at the same rate of 2 μl/min through a recovery probe, located at 1 mm from the delivery probe. Aliqouots of 40 μl were collected from the recovery probe every 20 min. The recovered Glu was measured using a spectrofluorometric assay (see below).
A 20 μl aliquot from microdialysate was added to 480 μl HG buffer containing 15 U of Glu dehydrogenase in 0.2 mM NAD, 0.3M glycine, 0.25 M hydrazine hydrate adjusted to pH 8.6 with 1N H2SO4. […] A Glu standard curve was established with concentrations ranging from 0-6 μM. All determinations were done at least in duplicates. The results are expressed as mean.+−SD.
The dual-probe brain microdialysis was used and perfused through the delivery probe inserted in the striatum of anesthetized rats a Glu solution while simultaneously perfusing artificial CSF through a recovery probe, located at 1 mm distance.

[3] = tested on: traumatic brain injury (TBI); assay: Neurological severity score (NSS) after traumatic brain injury; type: in vivo, rat; details: for spontaneous partial recovery of rats submitted to TBI: summary statement
Procedure: FIGS. 3A-C are graphs showing the effects of stress on the spontaneous recovery from traumatic brain injury. FIG. 3A illustrates TBI protocol and times of neurological severity score (NSS) assessment and removal of blood samples (asterisks) FIG. 4B is a histogram showing the effects of propranolol (10 mg/kg i.p) on the spontaneous recovery of rats submitted to TBI. Propranolol was injected 60 min before the infliction of TBI. The neurological severity scores were measured at 1 and 24 hours following TBI. The scores shown on the ordinate correspond to NSS averages+/−standard error of the mean. Control (n=33); propranolol (n=8). […] Propranolol was injected at a dose of 10 mg/kg i.p. 60 min before the infliction of TBI.
Animal anesthesia and well being—Experiments were conducted according to the recommendations of the Declarations of Helsinki and Tokyo and to the Guidelines for the Use of Experimental Animals of the European Community. The experiments were approved by the Animal Care Committees of Ben-Gurion University of the Negev and of the Weizmann Institute. Spontaneously breathing male Sprague Dawley rats weighing 200-300 g were anesthetized with a mixture of isoflurane (initial inspired concentration 2%) in 100% oxygen (1l/min). The rectal temperature was maintained at 37° C. using a heating pad and anesthesia was considered as sufficient for surgery when tail reflex was abolished. Catherization of the tail vein was carried out with a BD Neoflon 24 g catheter for allowing fluid infusion. Catherization of the tail artery was performed to allow blood sampling and determination of blood pressure and heart rate.

blood Glu levels [4] = assay: Blood Glu levels following traumatic brain injury; type: in vivo, rat
Procedure: FIGS. 3A-C are graphs showing the effects of stress on the spontaneous recovery from traumatic brain injury. FIG. 3A illustrates TBI protocol and times of neurological severity score (NSS) assessment and removal of blood samples (asterisks) […] is a histogram showing the effects of propranolol (10 mg/kg i.p) on the spontaneous recovery of rats submitted to TBI. Propranolol was injected 60 min before the infliction of TBI. The neurological severity scores were measured at 1 and 24 hours following TBI. The scores shown on the ordinate correspond to NSS averages+/−standard error of the mean. Control (n=33); propranolol (n=8). Bonferroni's multiple comparison tests: saline 1 h vs saline 24 h p<0.001; saline 1 h vs propranolol pretreatment p>0.05; saline 1 h vs propranolol post-TBI p<0.001. FIG. 3C is a graph showing the effects of propranolol on the blood Glu (rectangles) and glucose (triangles) levels of rats submitted to TBI (n=8). Propranolol was injected at a dose of 10 mg/kg i.p. 60 min before the infliction of TBI. Glu and glucose levels were measured at 1, 60, 120 and 150 min following TBI. Glu levels were normalized to the value at t=1 min.;
FIGS. 4A-C are graphs depicting the effects of a blood Glu scavenger and of Glu on the recovery from TBI. Rats were injected intravenously for a total duration of 30 min (as in FIG. 3A) either with saline (30 μl/min/100 g), OxAc (30 μmoles/min/100 g) or OxAc+Glu (30 μmoles/min/100 g each). Twenty four and forty eight hours later, rats were submitted to various tests to establish the NSS. The scores shown above each column correspond to NSS averages with bars indicating the standard error of the mean. FIG. 4A—The groups from left to right are as follows: control saline (n=33) at 1 hour and 24 h; OxAc (n=32); Glu (n=32); OxAc+Glu (n=17) at 24 h and 48 h; One way ANOVA and Bonferroni multiple comparison tests: At 24 h: saline versus OxAc: p<0.05; saline versus Glu: p<0.01; Glu versus OxAc: p<0.001; saline versus OxAc+Glu: p>0.05. […] Glu levels are expressed as the percent of the basal Glu levels measured before TBI. […] Paired t test: 0 versus 60 min saline p=5.10^−4; 0 versus 60 min OxAc p=0.10^−4; 60 min versus 75 min saline: p=0.59; 60 min versus 75 min OxAc: p=3.10^−3; 75 min versus 90 min saline: p=0.89; 75 min versus 90 min OxAc: p=2.10^−4; C: Time course of the recovery from TBI in saline (n=7) and OxAc-treated (n=7) rats as monitored by NSS values presented here as mean±standard deviation. […]
Glu spectrofluorometric assay—Glu concentration was measured using the fluorometric method of Graham and Aprison. […] After incubation for 30-45 min at room temperature, the fluorescence was measured at 460 nm with excitation at 350 nm. […] The results are expressed as mean.+−SD. […]

blood glucose levels = assay: Blood glucose levels following traumatic brain injury; type: in vivo, rat; details: propranolol 10 mg/kg i.p. 60 min before TBI
Procedure: FIGS. 3A-C are graphs showing the effects of stress on the spontaneous recovery from traumatic brain injury. FIG. 3A illustrates TBI protocol and times of neurological severity score (NSS) assessment and removal of blood samples (asterisks) […] is a histogram showing the effects of propranolol (10 mg/kg i.p) on the spontaneous recovery of rats submitted to TBI. Propranolol was injected 60 min before the infliction of TBI. The neurological severity scores were measured at 1 and 24 hours following TBI. The scores shown on the ordinate correspond to NSS averages+/−standard error of the mean. Control (n=33); propranolol (n=8). […] Glu and glucose levels were measured at 1, 60, 120 and 150 min following TBI. […]
Animal anesthesia and well being—Experiments were conducted according to the recommendations of the Declarations of Helsinki and Tokyo and to the Guidelines for the Use of Experimental Animals of the European Community. […] Blood samples were analyzed for pH, pO2, pCO2, HCO3^−3. Glucose levels were measured with Accu-Chek sensor comfort. […] Following TBI, all rats were laid on their left side in order to recover from anesthesia and to check righting reflex and recovery time as part of the assessment of NSS which was evaluated 1 h after TBI (see below).

blood Glu levels [5] = assay: Blood Glu levels in rats after stress hormones, agonists and antagonists; type: in vivo, rat; details: for effect on blood Glu levels: cortisol 25 mg/kg intraperitoneally, noradrenaline intravenously 30 min at 2 μg/100 g/min
Procedure: FIGS. 2A-B are line graphs showing the effects of stress hormones and stress on blood glutamate and glucose levels. A: Cortisol (25 mg/kg) was injected intraperitoneally (triangles). Noradrenaline was infused intravenously for 30 min at 2 μg/100 g/min and 1 ml/100 g (rectangles). Adrenaline was infused intravenously for 30 min at […] and 1 ml/100 g (diamonds). The data presented are normalized to the respective basal blood values and shown as mean±standard deviation (n=3). B: Effects of an intracranial insertion of a microdialysis probe (without any fluid perfusion) on blood Glu (diamonds) and glucose (rectangles) levels. The data presented are normalized to the respective basal blood values and shown as mean±standard deviation (n=4);
The rats NSS were measured after 24 and 48 h The results are presented as mean±standard deviation; and
FIG. 8 is a graph showing the effect of an alpha 1 agonist, phenylephrine on blood Glu levels. Phenylephrine was infused intravenously for 30 min into rats (n=4) at a rate 0.25 mg/0.5 ml/100 g/30 min and the levels of blood Glu were determined at time=0 and every subsequent 30 min until 120 min. The results are presented as mean±standard deviation.
Glu spectrofluorometric assay—Glu concentration was measured using the fluorometric method of Graham and Aprison. A 20 μl aliquot from microdialysate was added to 480 μl HG buffer containing 15 U of Glu dehydrogenase in 0.2 mM NAD, 0.3M glycine, 0.25 M hydrazine hydrate adjusted to pH 8.6 with 1N H2SO4. After incubation for 30-45 min at room temperature, the fluorescence was measured at 460 nm with excitation at 350 nm. A Glu standard curve was established with concentrations ranging from 0-6 μM. All determinations were done at least in duplicates. The results are expressed as mean.+−SD.
Determination of Blood/plasma Glu—Whole blood (200 μl aliquot) were deproteinized by adding an equal volume of ice-cold 1 M perchloric acid (PCA) and then centrifuging at 10000×g for 10 min at 4° C. The pellet was discarded and supernatant collected, adjusted to pH 7.2 with 2M K2CO3 and, if needed, stored at −80° C. for later analysis using the above-described assay.
The rats NSS were measured after 24 and 48 h.
Phenylephrine was infused intravenously for 30 min into rats (n=4) at a rate 0.25 mg/0.5 ml/100 g/30 min and the levels of blood Glu were determined at time=0 and every subsequent 30 min until 120 min.

[6] = Blood osmolality and Na content before and after treatment; type: in vivo, rat; details: OxAc group
Procedure: This beneficial effect was not observed in the other groups for which the treatment includes the intravenous administration of Glu (data not shown). Since OxAc could act on brain edema as an osmotic agent, both the blood osmolality and Na content were measured before and after the 30 min-long treatments with OxAc or saline. There was no change in the saline group (303±3.5 mOsm (pre-treatment) vs 299±3 mOsm (post-treatment); Na: 140±1 meq/l vs 141±0.8 meq/l) but a very significant increase in the OxAc-group: (301±5 mOsm vs 338±8 mOsm; Na: 139±1 meq/l vs 164±3.4 meq/l). The hypernatriema and hyperosmolarity in the OxAc-treated rats can be accounted by the fact that OxAc is administered together with 2 Na equivalents. To determine that the NSS improvement and edema reduction in the OxAc-treated rats were not due to an osmotic “therapy”, rats were submitted after TBI to a hypertonic (3% NaCl) saline treatment. As the respective NSS values obtained at 60 min and 24 h post TBI were 15.6±3.6 and 12.4±5.3 (n=7; p=0.16), it was concluded that the beneficial effects of OxAc are not the result of an osmotic therapy.

[7] = baseline before 30 min-long treatment

Sequence of E. coli GOT (GenBank Accession No. D90731.1) (P00509 whole entry): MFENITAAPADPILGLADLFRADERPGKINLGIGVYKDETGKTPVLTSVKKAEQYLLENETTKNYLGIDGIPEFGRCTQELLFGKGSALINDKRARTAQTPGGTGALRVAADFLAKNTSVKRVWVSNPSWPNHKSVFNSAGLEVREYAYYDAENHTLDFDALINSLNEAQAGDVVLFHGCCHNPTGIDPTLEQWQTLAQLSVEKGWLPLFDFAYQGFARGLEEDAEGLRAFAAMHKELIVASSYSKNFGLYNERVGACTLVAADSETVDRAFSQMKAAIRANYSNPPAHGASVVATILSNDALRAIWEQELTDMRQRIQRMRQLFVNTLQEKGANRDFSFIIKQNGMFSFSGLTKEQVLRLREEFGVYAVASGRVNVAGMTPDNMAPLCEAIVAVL

Compound: O=C(O)CCC(=O)C(=O)O [2-ketoglutarate]
- affinity of E. coli GOT for the substance [1]: about 0.2 mM

Compound: CC(C)NCC(O)COc1cccc2ccccc12 (stereo not drawn) [propranolol]
- effect on Glu dual-probe microdialysis profile ([2]; propranolol pretreatment, data not shown): did not affect
- spontaneous NSS improvement at 24 h ([3]; propranolol 10 mg/kg i.p. 1 hour before TBI): prevented the spontaneous NSS improvement
- NSS improvement ([3]; propranolol administration delayed by 60 min after TBI): caused the same NSS improvement as that found after saline treatment
- spontaneous partial recovery of rats submitted to TBI [3]: prevented
- stress-induced changes of blood Glu levels (blood Glu levels [4]; propranolol 10 mg/kg i.p. 60 min before TBI): prevented for at least 150 min the stress-induced changes of blood Glu and glucose levels
- effect on blood glutamate levels (blood Glu levels [4]; propranolol, rats submitted to TBI (FIGS. 3A-C)): practically no effect
- stress-induced changes of blood glucose levels (blood glucose levels): prevented for at least 150 min the stress-induced changes of blood Glu and glucose levels

Compound: COCCc1ccc(OCC(O)CNC(C)C)cc1 (stereo not drawn) [metaprolol]
- effect on the reduction of blood Glu levels (blood Glu levels [5]; metaprolol 15 mg/kg, naive rats): strong effect
- reduction of in vivo rat blood glutamate (blood Glu levels [5]; metaprolol 15 mg/kg, naive rats, followed to 120 min): 40%

Compound: NC[C@H](O)c1ccc(O)c(O)c1 [noradrenaline]
- effect on blood Glu levels (blood Glu levels [5]): neither cortisol nor noradrenaline affected blood Glu levels

- blood Na content, post-treatment ([6]; after 30 min-long treatment): 164±3.4 meq/l
- blood osmolality, post-treatment ([6]; after 30 min-long treatment): 338±8 mOsm
- blood Na content, pre-treatment [6, 7]: 139±1 meq/l
- blood osmolality, pre-treatment [6, 7]: 301±5 mOsm
Compound: O=C(O)CC(=O)C(=O)O [OxAc, oxaloacetate]
- further reduction of the amounts of Glu reaching the recovery probe ([2]; 1M Glu perfused, intravenous OxAc at t=110 min for 30 min, 30 μmoles/min/100 g): up to 50 % of the peak value
- blood Glu levels after TBI (blood Glu levels [4]; intravenous OxAc 30 μmoles/min/100 g, 60-90 min after TBI, relative to basal Glu before TBI): 40%
- duration of decrease of blood Glu after TBI (blood Glu levels [4]; stress- and OxAc-induced decreases): at least 90 min

Compound: CNC[C@H](O)c1cccc(O)c1 [phenylephrine]
- reduction of blood basal glutamate levels (blood Glu levels [5]; injected intravenously at 0.1 mg/100 gr rat body-weight/30 min): 40%

Compound: N[C@@H](CCC(=O)O)C(=O)O [Glu, L-glutamic acid]
- amounts of Glu reaching the recovery probe ([2]; 1M Glu perfused, intravenous Glu at t=100 min for 30 min, 30 μmoles/min/100 g): significantly more Glu reaches the recovery probe
- recovery from TBI (NSS at 24 h and 48 h) ([3]; intravenous 30 min, 30 μmoles/min/100 g (each), after TBI): recovered the least
- spontaneous partial recovery of rats submitted to TBI [3]: prevented
- affinity of E. coli GOT for the substance [1]: about 8 mM

Compound: C[C@]12CCC(=O)C=C1CC[C@@H]1[C@@H]2[C@@H](O)C[C@@]2(C)[C@H]1CC[C@]2(O)C(=O)CO [cortisol]
- effect on blood Glu levels (blood Glu levels [5]): neither cortisol nor noradrenaline affected blood Glu levels
